Key:
Assay type in all cases: physicochemical
[1] = Stability studies, long term (XRPD, TGA, HPLC); details: non-micronized, three months
Experimental: Non-micronized samples of monohydrate and anhydrate were stored at 40° C./75% RH for three months. The monohydrate was also stored at 40° C. without humidity control. During the three months, the samples were checked after two weeks, one month, two months, and three months.

[2] = Water solubility of the crystal forms; details: Table 2 data
[3] = Dynamic vapor sorption (DVS), hygroscopicity; details: for DVS gain: 0-90% RH; for Hygroscopicity (from DVS weight gain): DVS data of Table 2
Source text: Dynamic Vapor Sorption (Allentown, Pa.) was used to measure the hygroscopicity of the anhydrate and monohydrate of the invention (see FIGS. 6 and 7). The step conditions were three hours each at 0%, 30%, 52.5%, 75% and 90% RH, two full cycles.

[4] = Stability studies, medium term (XRPD and TGA)
Experimental: Samples of monohydrate were stored at room temperature, 56° C., and 70° C. for one week. At room temperature, humidity was maintained at 0% RH. Humidity was not controlled for the higher temperatures.
The samples were analyzed by XRPD and TGA.

[5] = Stability studies, short term (XRPD)
[6] = Stability, separate study of micronized and non-micronized anhydrate (XRPD)
[7] = 40° C. without humidity control

Row | SMILES | Chemical stability (HPLC) [1, 7] | Transformation of crystal form (XRPD and TGA) [1, 7] | Chemical stability (HPLC) ([1]; 40° C./75% RH) | Transformation of crystal form (XRPD and TGA) ([1]; 40° C./75% RH) | Water solubility compared between the two forms [2] | DVS gain [3] | Hygroscopicity (from DVS weight gain) [3] | Dehydration on storage (XRPD and TGA) ([4]; 56° C., humidity not controlled, one week) | Dehydration on storage (XRPD and TGA) ([4]; 70° C., humidity not controlled, after 1 day) | Dehydration on storage (XRPD and TGA) ([4]; 70° C., humidity not controlled, after 4 days) | Dehydration on storage (XRPD and TGA) ([4]; 70° C., humidity not controlled, after 7 days) | Dehydration on storage (XRPD and TGA) ([4]; room temperature, 0% RH, one week) | Stability of crystal form (XRPD) ([5]; 70° C. for one hour) | Stability of crystal form (XRPD) ([5]; 90° C. after one half hour) | Stability of crystal form (XRPD) ([5]; 90° C. after one hour) | Transformation to the monohydrate (XRPD) ([6]; micronized, 25° C./60% RH, three months) | Transformation to the monohydrate (XRPD) ([6]; micronized, 40° C./75% RH, one month) | Transformation to the monohydrate (XRPD) ([6]; non-micronized, 40° C./75% RH)
1 | C=Cc1cc(O)cc2nc(-c3ccc(O)c(F)c3)oc12 [Monohydrate, 2-(3-fluoro-4-hydroxyphenyl)-7-vinyl-1,3-benzoxazol-5-ol] | chemically stable | did not transform | chemically stable | did not transform | significantly lower solubility than the anhydrate | 0.1% gain (0-90% RH) | largely non-hygroscopic | no obvious dehydration | no obvious hydration | partially dehydrated | mostly dehydrated | no obvious dehydration | stable | partially dehydrated | completely dehydrated |  |  | 
2 | C=Cc1cc(O)cc2nc(-c3ccc(O)c(F)c3)oc12 [Anhydrate, 2-(3-fluoro-4-hydroxyphenyl)-7-vinyl-1,3-benzoxazol-5-ol] |  |  | chemically stable | did not transform |  | 0.2% gain (0-90% RH) | largely non-hygroscopic |  |  |  |  |  |  |  |  | did not transform to the monohydrate | partially transform to the monohydrate | did not show any obvious transformation

From patent US7683182B2, “Crystal forms of 2-(3-fluoro-4-hydroxyphenyl)-7-vinyl-1,3-benzoxazol-5-ol” (Wyeth LLC, priority 2005, dated 2010)
